“Also recorded” adds a separate entry of the source.
Key:
[1] = test system: platinated DNA at MYC locus in HCT116 cells; test: Immunofluorescence with MYC DNA FISH after JQ1 then cisplatin; type: cell-based, human; settings: 1 μM JQ1 24 hours, then 50 μM cisplatin 6 hours
BRD4 at super-enhancers = test: Super-enhancers versus typical enhancers, gene expression and BRD4 genomic occupancy; type: cell-based
[2] = test system: MED1, BRD4, and POL2 condensates in HCT116 colon cancer cell lines; test: Small molecule effects on transcriptional condensates in GFP-tagged HCT116 cells; type: cell-based, human; settings: for effect on transcriptional condensates: MED1-GFP, BRD4-GFP, POL2-GFP HCT116
From the text: HCT116 colon cancer cell lines endogenously tagged with MED1-GFP, BRD4-GFP, POL2-GFP, or HP1a-GFP (Mock), all forming condensates in the nucleus.

[3] = Droplet formation assay of small molecule alone without any protein; type: physicochemical; settings: without any protein added
Protocol: Recombinant BFP, GFP, or mCherry fusion proteins were concentrated and desalted to an appropriate protein concentration and 125 mM NaCl using Amicon Ultra centrifugal filters (30K MWCO, Millipore). […] […] The protein solution was immediately loaded onto glass bottom 384 well plate (Cellvis P384-1.5H-N) and imaged with an Andor confocal microscope with a 150× objective. Unless indicated, images presented are of droplets settled on the glass coverslip.

[4] = test system: MED1 genomic occupancy in HCT116 cells; test: MED1 ChIP-seq in HCT116 cells; type: cell-based, human; settings: JQ1 for 24 hours
HP1α = molecular target: T1, HP1α (Homo sapiens, UniProt P45973); test: In vitro droplet assay, small molecule partitioning into HP1α condensates; type: binding
T1 construct: HP1α—full length, amino acids 1-191; 6xHis (N); made in house; host or cells: LOBSTR cells (E. coli)
Protocol: (§1) Recombinant BFP, GFP, or mCherry fusion proteins were concentrated and desalted to an appropriate protein concentration and 125 mM NaCl using Amicon Ultra centrifugal filters (30K MWCO, Millipore). Recombinant protein was added too. […] The protein solution was immediately loaded onto glass bottom 384 well plate (Cellvis P384-1.5H-N) and imaged with an Andor confocal microscope with a 150× objective. Unless indicated, images presented are of droplets settled on the glass coverslip.
(§2) Drug and small molecule concentrations used in the droplet experiments are as follows:
(§3) To analyze in vitro droplet experiments, custom Python scripts using the scikit-image package were written to identify droplets and characterize their size, shape and intensity. […] After segmentation, mean intensity for each droplet was calculated while excluding pixels near the phase interface, and background-corrected by subtracting intensity of dark images of droplet formation buffer only. Droplets identified in the channel of the fluorescent protein from ten independent fields of view were quantified for each experiment. The maximum intensity of signal within the droplets was calculated for each channel, the maximum intensity in the drug channel was termed “maximum drug intensity”. […]

[5] = test system: MED1 condensate at the LAC array in U2OS cells; test: LAC binding assay, FLTX1 enrichment at tethered MED1 or HP1α; type: cell-based, human; settings: ESR1 not expressed, 1 uM FLTX1
Protocol: Constructs were assembled by NEB HIFI cloning in pSV2 mammalian expression vector containing an SV40 promoter driving expression of a mCherry-LacI fusion protein. The intrinsically disordered region of MED1, HP1α, or the activation domain of ESR1 was fused by the c-terminus to this recombinant protein, joined by the linker sequence […] (SEQ ID NO: 16). For experiments comparing FLTX1 enrichment at the array, U20S-Lac cells were plated onto chambered coverglass (1.5 Borosilicate Glass, Nunc Lab-Tek, 155409) and transfected with either MED1 IDR or HP1α constructs with lipofectamine 3000 (Thermofisher L3000015). After 24 hours, cells were treated with either 1 uM FLTX1 or vehicle (DMF). […]
For analysis of Lac array data comparing MED1 or HP1α tethered, a region of interest was called using the signal in the Lac array (561 channel). The average fluorescent signal for FLTX1 (488 channel) was then measured in the region of interest and divided by the average fluorescence in the region of interest at the Lac array. […] For analysis of Lac array data for MED1 overexpression, enrichment was calculated by dividing the average fluorescent signal for MED1 immunofluorescence at the region of interest, defined by the ER tethered at the lac array, by MED1 immunofluorescence signal at a random nuclear region.

MED1 = molecular target: T2, MED1 (Homo sapiens, UniProt Q15648); test: In vitro droplet assay, small molecule partitioning into MED1 condensates; type: binding; settings: for partitioning / incorporation into MED1 droplets: confocal fluorescence, Example 2: 125 mM NaCl, 10% PEG, 10 μM protein, fluorescent or fluorescently labeled drug
T2 construct: MED1—amino acids 600-1581; 6xHis (N); made in house; host or cells: LOBSTR cells (E. coli)
Protocol: as §1, §2
To analyze in vitro droplet experiments, custom Python scripts using the scikit-image package were written to identify droplets and characterize their size, shape and intensity. Droplets were segmented from average images of captured channels on various criteria: (1) an intensity threshold that was three s.d. above the mean of the image; (2) size thresholds (20 pixel minimum droplet size); and (3) a minimum circularity (circularity=4π·areaperimeter2) (circularity=4π·areaperimeter2) of 0.8 (1 being a perfect circle). After segmentation, mean intensity for each droplet was calculated while excluding pixels near the phase interface, and background-corrected by subtracting intensity of dark images of droplet formation buffer only. Droplets identified in the channel of the fluorescent protein from ten independent fields of view were quantified for each experiment. The maximum intensity of signal within the droplets was calculated for each channel, the maximum intensity in the drug channel was termed “maximum drug intensity”. To obtain the intensity of drug or dye alone in the diffuse state (termed “diffuse drug intensity”), the compound was added to droplet formation buffer at same concentration used in the droplet assay. This was then imaged on a confocal fluorescent microscope. The resulting image was processed in FIJI to obtain the fluorescent intensity of the field. To obtain the fluorescent intensity of protein droplets that bleed through in the drug channel (termed “background intensity”) protein droplets were imaged in the fluorescent channel in which the drug fluoresces and processed as above to obtain the average maximum intensity within the droplet across 10 images. The enrichment ratio was obtained by the following formula [(maximum drug intensity)−(background intensity)]/(diffuse drug intensity). The box plots show the distributions of all droplets. Each dot represents an individual droplet.

NPM1 = molecular target: T3, NPM1 (Homo sapiens, UniProt P06748); test: In vitro droplet assay, small molecule partitioning into NPM1 condensates; type: binding; settings: 125 mM NaCl, 10% PEG, 10 μM protein
T3 construct: NPM1—full length, amino acids 1-294; 6xHis (N); made in house; host or cells: LOBSTR cells (E. coli)
Protocol: as §1, §2, §3

MED1 condensates = molecular target: T4, MED1 condensates (Homo sapiens, UniProt Q15648); test: Determination of partitioning by spectrophotometry and quantitative phase microscopy; type: binding; settings: uv spectroscopy of drug remaining in solution plus condensate volume estimate
T4 construct: MED1—amino acids 600-1581; 6xHis (N); made in house; host or cells: LOBSTR cells (E. coli)
From the text: Here, an expression is derived briefly for the partition coefficient of a client molecule into a condensed phase in terms of quantities that are readily measurable experimentally. A sample composed of two coexisting phases is considered, named dilute and condensed, with volume fractions ϕdilute and […]. If a client molecule (e.g. a drug) is also present in the sample at an average concentration of ctotal, then mass conservation requires that
the ratio is estimated ctotal/cdilute from fluorescence spectroscopy measurements, as described in a subsequent section, while ϕcond, it is inferred from the lever rule (M. Rubinstein, R. H. Colby, Polymer Phyics (Oxford University Press, 2003) as follows: denoting the concentration of scaffold protein (e.g. MED1) by s, mass conservation gives stotal=sdiluteϕdilute+scondϕcond, in analogy with Eq. 1. Again using the requirement that the volume fractions of coexisting phases sum to 1, this can be rearranged to yield
where stotal and sdilute are measured spectrophotometrically from optical absorbance at 280 nm, and scond is measured from quantitative phase microscopy, using a coherence-controlled holographic microscope (Q-Phase, Telight (formerly TESCAN), Bmo, CZ) equipped with 40× dry objectives (NA=0.90). […]
where A is the measured absorbance (in Absorbance Units (AU)), I0 is the intensity of the incident light at a given wavelength, I is the transmitted intensity, L the path length through the sample, and c the concentration of the absorbing species. […] The partitioned drug was measured by using spin down assay. […] The supernatant was collected and measured the concentrations of the drug. The partitioned drug was calculated by subtracting from the total known concentration of drug added.
Quantitative phase measurements were performed using a coherence-controlled holographic microscope (Q-Phase, Telight (formerly TESCAN), Brno, CZ) equipped with 40× dry objectives (NA=0.90) as follows. […]
Q-PHASE software was used to construct compensated phase images from acquired holograms, which were subsequently analyzed in MATLAB using custom code. […]

nucleolus = settings: references (35, 36); cited from earlier work
FIB1 = molecular target: T5, FIB1 (Homo sapiens, UniProt P22087); test: In vitro droplet assay, small molecule partitioning into FIB1 condensates; type: binding; settings: 125 mM NaCl, 10% PEG, 10 μM protein
T5 construct: FIB1—full length, amino acids 1-321; 6xHis (N); made in house; host or cells: LOBSTR cells (E. coli)
Protocol: as §1, §2, §3

T2 sequence (Q15648 600-1581): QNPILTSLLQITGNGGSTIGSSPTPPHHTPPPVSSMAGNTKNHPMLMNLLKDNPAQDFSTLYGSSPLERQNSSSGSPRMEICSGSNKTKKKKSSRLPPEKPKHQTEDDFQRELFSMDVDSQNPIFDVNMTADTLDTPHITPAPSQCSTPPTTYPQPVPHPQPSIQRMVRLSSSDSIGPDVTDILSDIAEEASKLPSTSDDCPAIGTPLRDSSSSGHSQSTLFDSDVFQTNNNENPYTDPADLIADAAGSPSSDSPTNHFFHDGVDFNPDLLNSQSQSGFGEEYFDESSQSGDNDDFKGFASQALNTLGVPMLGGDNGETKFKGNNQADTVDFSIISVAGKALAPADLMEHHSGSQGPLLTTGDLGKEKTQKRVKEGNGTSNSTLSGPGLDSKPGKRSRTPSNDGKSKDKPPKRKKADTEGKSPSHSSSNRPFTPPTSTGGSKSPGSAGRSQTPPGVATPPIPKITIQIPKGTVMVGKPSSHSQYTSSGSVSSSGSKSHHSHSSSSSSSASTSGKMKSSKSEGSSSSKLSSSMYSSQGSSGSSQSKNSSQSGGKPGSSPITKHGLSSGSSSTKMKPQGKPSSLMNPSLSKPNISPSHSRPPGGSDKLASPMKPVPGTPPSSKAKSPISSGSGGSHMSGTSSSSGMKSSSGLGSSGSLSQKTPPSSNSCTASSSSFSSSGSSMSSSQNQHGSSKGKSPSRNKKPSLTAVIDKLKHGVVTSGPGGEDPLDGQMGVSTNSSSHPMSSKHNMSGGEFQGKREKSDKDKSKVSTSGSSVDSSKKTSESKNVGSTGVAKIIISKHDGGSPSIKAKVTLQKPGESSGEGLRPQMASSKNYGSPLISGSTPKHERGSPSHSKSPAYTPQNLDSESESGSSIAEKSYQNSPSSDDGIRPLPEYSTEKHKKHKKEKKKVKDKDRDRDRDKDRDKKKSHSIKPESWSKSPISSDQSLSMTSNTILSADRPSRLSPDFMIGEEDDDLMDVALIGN
T3 sequence (P06748 whole entry, the tested form may be a part): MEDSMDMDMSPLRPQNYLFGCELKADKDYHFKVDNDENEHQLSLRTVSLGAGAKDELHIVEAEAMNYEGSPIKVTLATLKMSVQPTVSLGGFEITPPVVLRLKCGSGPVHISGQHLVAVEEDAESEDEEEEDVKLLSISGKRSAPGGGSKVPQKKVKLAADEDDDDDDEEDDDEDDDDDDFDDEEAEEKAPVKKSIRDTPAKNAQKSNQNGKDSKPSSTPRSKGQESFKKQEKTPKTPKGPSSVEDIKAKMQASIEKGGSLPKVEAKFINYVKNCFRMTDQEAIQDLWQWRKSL
T1 sequence (P45973 whole entry, the tested form may be a part): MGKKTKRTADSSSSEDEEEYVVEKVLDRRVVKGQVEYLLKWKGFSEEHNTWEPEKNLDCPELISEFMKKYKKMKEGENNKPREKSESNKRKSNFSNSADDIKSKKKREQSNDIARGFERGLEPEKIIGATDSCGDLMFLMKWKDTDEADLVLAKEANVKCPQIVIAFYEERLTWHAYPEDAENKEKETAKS
T5 sequence (P22087 whole entry, the tested form may be a part): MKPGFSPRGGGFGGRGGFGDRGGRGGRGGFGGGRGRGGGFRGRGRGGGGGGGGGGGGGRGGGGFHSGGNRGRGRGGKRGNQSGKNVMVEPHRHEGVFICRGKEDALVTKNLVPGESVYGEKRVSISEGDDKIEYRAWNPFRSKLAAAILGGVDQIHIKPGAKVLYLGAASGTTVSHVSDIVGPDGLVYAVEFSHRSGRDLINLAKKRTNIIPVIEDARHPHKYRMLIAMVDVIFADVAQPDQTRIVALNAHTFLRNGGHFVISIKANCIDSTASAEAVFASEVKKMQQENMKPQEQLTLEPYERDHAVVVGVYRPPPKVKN
T4 sequence (Q15648 600-1581): as the sequence (Q15648 600-1581) above

SMILES | platinated DNA at the MYC locus after JQ1 treatment [1] | BRD4 genomic occupancy, super-enhancers versus typical enhancers (BRD4 at super-enhancers) | sensitivity of gene expression by super-enhancers versus typical enhancers (BRD4 at super-enhancers) | effect on transcriptional condensates [2] | effect on transcriptional condensates, long exposure ([2]; long exposure (e.g., 24 hours)) | MED1 condensates after JQ1 ([2]; mEGFP-MED1 tagged HCT116 cells, JQ1 for 24 hours) | effect on transcriptional condensates, short exposure ([2]; short exposure (e.g., 5 minutes)) | droplet formation of small molecule alone [3] | MED1 ChIP-Seq at MYC after JQ1 [4] | partitioning / incorporation into HP1α droplets (HP1α) | FLTX1 enrichment at MED1 condensate tethered to the LAC array [5] | drug concentration in larger MED1 condensates (MED1; 20 μM (High) vs 5 μM (Low) MED1, 100 μM FLTX1) | partitioning / incorporation into MED1 droplets (MED1) | partitioning into NPM1 condensates (NPM1) | partition ratio in MED1 condensates (MED1 condensates) | subcellular concentration (nucleolus) | partitioning into FIB1 condensates (FIB1)
Cc1sc2c(c1C)C(c1ccc(Cl)cc1)=N[C@@H](CC(=O)OC(C)(C)C)c1nnc(C)n1-2 [JQ1, (S)-tert-butyl 2-(4-(4-chlorophenyl)-2,3,9-trimethyl-6H-thieno[3,2-ƒ][1,2,4]triazolo[4,3-a][1,4]diazepin-6-yl)acetate] | concomitant reduction in platinated DNA at the MYC oncogene; also recorded: loss of signal for platinated DNA | reduces BRD4 genomic occupancy in super-enhancers to a greater extent than typical enhancers | more sensitive | reduces the number of, or eliminates | genomic release and consolidation of condensates | loss of MED1 condensates; also recorded: diminution of MED1 condensates | eviction of some condensate components | diffuse fluorescent signal | loss of MED1 loading | – | – | – | – | – | – | – | –
CC/C(=C(\c1ccccc1)c1ccc(OCCN(C)c2ccc([N+](=O)[O-])c3nonc23)cc1)c1ccccc1 [FLTX1] | – | – | – | – | – | – | – | diffuse fluorescent signal | – | does not incorporate | concentrated FLTX1 at the site of the condensate; also recorded: concentrates in MED1 condensates in cells | lower concentrations of the drug | concentrated preferentially in MED1 droplets; also recorded: incorporated into MED1 containing condensates; also recorded: incorporates into MED1 droplets | – | – | – | –
O=C1c2c(O)ccc(O)c2C(=O)c2c(NCCNCCO)ccc(NCCNCCO)c21 [Mitoxantrone] | – | – | – | global dissolution of condensates; also recorded: cause condensate dissolution | – | – | – | diffuse fluorescent signal | – | – | – | – | concentrated; also recorded: immediately incorporate into MED1 droplets | concentrated | approximately 100 fold | concentrate in the nucleolus | concentrated
